Experimental data from patent US11576930B2, “Methods and compositions for treatment of multi-drug resistant tumors” (priority 2017, dated 2023).

Assays:
[1] = tested on: HCC97L cells; assay: MTT assay, sensitivity to chemotherapeutic drugs with anti-mycoplasma agent or A2PP; format: cell-based, human; conditions: non-cytotoxic concentration of MXF or AZI; chemotherapeutic 48 h
Method: (§1) Then, HCC97L (3×10^3 well^−1), Hep3B (4×10^3 well^−1), PLC (4×10^3 well^−1), CNE1 (1.75×10^3 well^−1), CNE2 (3.5×10^3 well^−1), HONE1 (2×10^3 well^−1) and SUNE1 (2×10^3 well^−1) were seeded in 96-well plates ([…]) and allowed to attach for 24 h. After that, human liver cancer cell lines were treated with 3 chemotherapeutic drugs separately at different concentrations (as indicated in FIG. 2) in the presence of the anti-mycoplasma antibiotics for 48 h. […] In the P37-ANXA2 interruption experiment, A2PP was dissolved in DMSO and HCC97L cells were pretreated with A2PP (as indicated in FIG. 3) 24 h before GEM or MX treatment. […] (5 mg/ml final concentration; MP Biomedicals, LLC, CA, USA) was added to each well. After 4 h incubation at 37° C., the medium was removed and 100 μL/well DMSO (GBCBIO Technologies, Guangzhou, China) was added. The plates were mixed by a thermomixer for 5 min at RT. Absorbance measures were made in a microplate reader (iMark, Bio-Rad Laboratories, CA, USA) at 570/655 nm.

[2] = tested on: Hep3B; assay: Cell morphology and MTT cytotoxicity of agent alone; format: cell-based, human; design: dose or concentration left out as unconfirmed; conditions: AZI
[3] = tested on: HCC97L cells; assay: as above; format: cell-based, human; design: dose or concentration left out as unconfirmed; conditions: AZI
Method: as §1

[4] = tested on: Hep3B cells; assay: MTT assay, sensitivity to chemotherapeutic drugs with anti-mycoplasma antibiotics; format: cell-based, human; conditions: non-cytotoxic concentration of MXF or AZI; chemotherapeutic 48 h
Method: as §1

[5] = tested on: PLC/PRF/5 cell line; assay: as above; format: cell-based, human; conditions: non-cytotoxic concentration of MXF or AZI; chemotherapeutic 48 h
Method: as §1

[6] = tested on: mycoplasma; assay: Mycoplasma detection using quantitative real-time PCR in cancer cell lines; format: cell-based; design: dose or concentration left out as unconfirmed; conditions: AZI
Method: Total DNA was extracted from 5×10^5 cells from each group by digestion at 70° C. for 10 min in 0.5% Tween-20, 50 mM Tris (pH 8.5), 1 mM EDTA, and 200 mg/L proteinase K, followed by phenol/chloroform/isoamyl alcohol extraction and sodium acetate precipitation. DNA precipitates were washed with 70% ethanol, dried, and dissolved in 20 μL of sterile water. The extracted DNA ([…], 1.2 μg) from the cells was added to […] of the reaction solution, containing PCR buffer (SuperRealPreMix, SYBR Green; Tiangen Biotech, Beijing, China) and primers pairs for mycoplasma detection and reference control (β-actin) with a final concentration of 0.12 μM for each primer, to a total volume of 10 μL. Quantitative real-time PCR (qPCR) was performed as the following profile: 95° C. for 1 min (preincubation), followed by 40 cycles at 95° C. for 10 s (denaturation), 60° C. for 30 s (annealing and elongation). The primers (Table 1) for mycoplasma detection were gifts from Prof. Zhongning Lin (School of Public Health, Xiamen University) including two forward primers for universal mycoplasmal detection, one forward primer to detect Myco M. pirum., one for Myco A. laidlawii. detection and a mix of degenerate primers to work as the reverse primers.

[7] = tested on: HONE1 cells; format: cell-based, human
Method: as §1

[8] = tested on: SUNE1 cells; format: cell-based, human
Method: as §1

[9] = tested on: CNE2; format: cell-based, human
Method: as §1

Row | sensitivity of HONE1 cells to 5-FU [7] | sensitivity of SUNE1 cells to 5-FU [8] | sensitivity of CNE2 cells to 5-FU [9] | SMILES | sensitivity of HCC97L cells to CDDP [1] | sensitivity of HCC97L cells to GEM [1] | sensitivity of HCC97L cells to MX [1] | toxicity to cells (cell morphology and MTT assay) [2] | toxicity to cells (cell morphology and MTT assay) [3] | sensitivity of Hep3B cells to GEM [4] | sensitivity of Hep3B cells to MX [4] | efficacy of the anti-tumor drugs (CDDP, GEM, MX) in PLC/PRF/5 cell line [5] | anti-mycoplasma effect (Real Time PCR) ([6]; HCC97L cells) | anti-mycoplasma effect (Real Time PCR) ([6]; Hep3B cells) | anti-mycoplasma effect (Real Time PCR) ([6]; PLC/PRF/5 cell line)
1 |  |  |  | CC[C@H]1OC(=O)[C@H](C)[C@@H](O[C@H]2C[C@@](C)(OC)[C@@H](O)[C@H](C)O2)[C@H](C)[C@@H](O[C@@H]2O[C@H](C)C[C@H](N(C)C)[C@H]2O)[C@](C)(O)C[C@@H](C)CN(C)[C@H](C)[C@@H](O)[C@]1(C)O [AZI, azithromycin] | enhanced | enhanced | enhanced | non-toxic | non-toxic | enhanced | enhanced | neither MXF nor AZI improved the efficacy | removed mycoplasma significantly | removed mycoplasma significantly | mycoplasma remained intact
2 | enhanced | improved | enhanced | COc1c(N2C[C@@H]3CCCN[C@@H]3C2)c(F)cc2c(=O)c(C(=O)O)cn(C3CC3)c12 [MXF, Moxifloxacin] |  |  |  |  |  |  |  |  |  |  | 
